Series [1] concerns subgenomic HCV genotype 1b replicon, I389/NS3-3'/ LucUbiNeo-ET. As to the kind of experiment: in vitro antiviral activity: luciferase assay in LucUbiNeo-ET HCV replicon cells. Particulars: Hepatitis C virus, 48 h, 2 days of incubation, luciferase readout, mean of duplicates. In kind it is cell-based. An excerpt:
(§1) To analyze the antiviral activity of the compounds, we used a stable cell line, LucUbiNeo-ET, that contains a subgenomic HCV genotype 1b replicon, I389/NS3-3'/ LucUbiNeo-ET, that express luciferase constitutively (Krieger et al, JVI 2001; 75:4614; Frese et al., JGV 2003; 84: 1253-1259). To evaluate the cellular toxicity, we use other cell line, Huh-7/Lunet (Friebe et al., JVI 2005; 79: 380-392), that originally carried a selectable luciferase HCV 1b replicon and was cured by treatment with an HCV-specific inhibitor. These cells are characterized by high permissiveness for HCV RNA replication. LucUbiNeo-ET cell line was cultured at 37°C in a humidified atmosphere with 5% CO2 in Dulbecco's modified Eagle medium (D-MEM) supplemented with high glucose concentration (4.5g/l) (Invitrogen), 10% (vol/vol) heat-inactivated fetal bovine serum (Hyclone, Cultek), 2mM L-Glutamine (Sigma-aldrich), 1mM sodium pyruvate (Sigma-aldrich), 1% MEM NEEA (Sigma-aldrich), and 0.5 mg/ml of Geneticin (G418) (Gibco, Invitrogen). Cured or Huh-7/Lunet cell line was maintained at the same conditions as described above without the addition of Geneticin.
(§2) Antiviral activity was carried out in white-clear bottom 96-well plates, and cytotoxicity assays were performed in clear 96-well plates. Cells were seeded at a density of 10^4/well in 100ul D-MEM without selection of antibiotics. After 24h, nine fivefold serial dilution of compounds, with 3 replicates at each dilution, were prepared in D-MEM and added to the appropriate wells, yielding concentrations of 125 to 0,00032 ug/ml in a final volume of 100 ul of D-MEM. Following 2 days of incubation, we determined the antiviral activity (EC50) by quantifying the luciferase with the Luciferase Bright Glo assay (Promega). Briefly, LucUbiNeo-ET cells were harvested with the addition of 100 ul of luciferase per well, and after 2 minutes of shaking, the light was read in a Luminometer Fluoroskan Ascent FL. Toxicity (CC50) was analysed in the Lunet/HuH7 cells by the addition of 10 ul of MTT (3-(4,5-dimethylthiazol-2-yl)-2,5-diphenyltetrazolium bromide) per well. After 4h of incubation at 37°C in a humidified atmosphere with 5% CO2, the amount of formazan produced was quantified spectrophotometrically at 550/620 nm [C. Pannecouque et al, Nature protocol 2008; 3 (3): 427-434]. The EC50 and CC50 values were calculated for each compound. These assays were done in duplicate and the results shown in Table 1 represent the mean value of these duplicates.
For orientation: Replicon systems follow genome replication, usually without infectious particles.

The next series in a line: cytotoxicity assay (MTT). Conditions: human, Lunet/HuH7 cells, 2 days of incubation, mean of duplicates; for CC50 at 2 days: Huh-7/Lunet cells (cured HCV replicon cells). The series is classed as cell-based.
Text: as §1, §2

Where only a bound is given, the exact number is not on record here.

This note sets out measurements from patent EP2905024A1 (Institut Quimic De Sarriá Cets, Fundació Privada, priority 2014, dated 2015).

Usually EC50 stands for the midpoint of the concentration-response curve. Read a high EC50 as weaker potency. What is called CC50 is the concentration giving 50% cytotoxicity. A higher CC50 goes with lower toxicity to the cells. Molecule `Cn1c(=O)c(-c2c(F)cccc2C(F)(F)F)cc2c(N)nc(Nc3ccccc3)nc21` [Example 51, 4-amino-6-(2-fluoro-6-(trifluoromethyl)phenyl)-8-methyl-2-(phenylamino) pyrido[2,3-d]pyrimidine-7(8H)-one] came in with a concentration for a half-maximal effect (EC50) in series [1] of 1 to 5 µM. Also, the cytotoxic concentration (CC50) at 2 days in “cytotoxicity assay (MTT)” is below 10 µM.

In series [1], `Cn1c(=O)c(-c2c(Cl)cccc2Cl)cc2c(N)nc(N)nc21` [Example 52] came in with an EC50 of 5 to 22 µM. The CC50 at 48 h in “cytotoxicity assay (MTT)” (huh-7/lunet cells) was at least 25 µM.

`Cn1c(=O)c(-c2c(Cl)cccc2Cl)cc2cnc(Nc3ccccc3)nc21` [Example 53, 6-(2,6-dichlorophenyl)-8-methyl-2-(phenylamino)pyrido[2,3-d]pyrimidine-7(8H)-one]: the concentration giving a half-maximal response (EC50) in series [1] is below 1 µM. In addition, in the series “cytotoxicity assay (MTT)”, the half-maximal cytotoxic concentration (CC50) at 2 days was below 10 µM.

`CCn1c(=O)c(-c2c(Cl)cccc2Cl)cc2c(N)nc(Nc3ccccc3)nc21` [Example 54, 4-amino-6-(2,6-dichlorophenyl)-8-ethyl-2-(phenylamino)pyrido[2,3-d] pyrimidine-7(8H)-one] registered a half-maximal effective concentration (EC50) in series [1] of 1 to 5 µM. The molecule further gave a CC50 at 2 days in the series “cytotoxicity assay (MTT)” of at least 25 µM.

With `CCCn1c(=O)c(-c2c(Cl)cccc2Cl)cc2c(N)nc(Nc3ccccc3)nc21` [Example 55, 4-amino-6-(2,6-dichlorophenyl)-2-(phenylamino)-8-propylpyrido[2,3-d] pyrimidine-7(8H)-one], the EC50 in series [1] lay within 1 to 5 µM. The molecule further came in with a CC50 at 2 days in the series “cytotoxicity assay (MTT)” of at least 25 µM.

In turn, `CCCCn1c(=O)c(-c2c(Cl)cccc2Cl)cc2c(N)nc(Nc3ccccc3)nc21` [Example 56, 4-amino-8-butyl-6-(2,6-dichlorophenyl)-2-(phenylamino)pyrido[2,3-d] pyrimidine-7(8H)-one] came in with an EC50 in series [1] of 5 to 22 µM. In “cytotoxicity assay (MTT)”, this molecule showed a cytotoxic concentration (CC50) at 2 days of at least 25 µM.

For `CC(C)Cn1c(=O)c(-c2c(Cl)cccc2Cl)cc2c(N)nc(Nc3ccccc3)nc21` [Example 57, 4-amino-6-(2,6-dichlorophenyl)-8-isobutyl-2-(phenylamino)pyrido[2,3-d] pyrimidine-7(8H)-one], the EC50 in series [1] is below 1 µM. Also, the CC50 at 2 days in the series “cytotoxicity assay (MTT)” is at least 25 µM.

In turn, `COCCn1c(=O)c(-c2c(Cl)cccc2Cl)cc2c(N)nc(Nc3ccccc3)nc21` [Example 58, 4-amino-6-(2,6-dichlorophenyl)-8-(2-methoxyethyl)-2-(phenylamino) pyrido[2,3-d]pyrimidine-7(8H)-one] gave an EC50 in series [1] below 1 µM. In the series “cytotoxicity assay (MTT)”, this molecule yielded a CC50 at 2 days of at least 25 µM.

`Nc1nc(Nc2ccccc2)nc2c1cc(-c1c(Cl)cccc1Cl)c(=O)n2CCO` [Example 59, 4-amino-6-(2,6-dichlorophenyl)-8-(2-hydroxyethyl)-2-(phenylamino) pyrido[2,3-d]pyrimidine-7(8H)-one] showed an EC50 in series [1] of 1 to 5 µM. In “cytotoxicity assay (MTT)”, this molecule returned a CC50 at 2 days of at least 25 µM.

In series [1], `Cn1c(=O)c(-c2c(Cl)cccc2Cl)cc2c(N)nc(Nc3ccc(Br)cc3)nc21` [Example 60, 4-amino-2-((4-bromophenyl)amino)-6-(2,6-dichlorophenyl)-8-methylpyrido[2,3-d]pyrimidine-7(8H)-one] yielded a 50% effective concentration (EC50) below 1 µM. Also, the CC50 at 2 days in “cytotoxicity assay (MTT)” was below 10 µM.

Regarding `CN1CCN(c2ccc(Nc3nc(N)c4cc(-c5c(Cl)cccc5Cl)c(=O)n(C)c4n3)cc2)CC1` [Example 61], the half-maximal effective concentration (EC50) in series [1] was below 1 µM. In “cytotoxicity assay (MTT)”, this molecule gave a CC50 at 2 days below 10 µM.
